How the values were obtained:
[1] = test system: FSH-induced changes in ovarian follicular maturation; assay: Immature Rat Test Procedure (FSH-induced organ wet weight); type: in vivo; details: immature rats, twice daily for three days with half-maximal dose of hFSH; for IC50 (mg/Kg) ovaries: ovarian wet weight; for IC50 (mg/Kg) uterus: uterine wet weight
Method: Immature Rat Test Procedure
In order to assess the ability of compounds to affect FSH-induced changes in ovarian follicular maturation in vivo, immature rats (18 days of age) are treated twice daily for three days with compound in the presence of a half-maximal dose of purified human FSH. Animals are treated via the i.p. or p.o. routes. On the fourth day following treatment, animals are euthanized and the ovaries, uterus and spleen (the spleen is a control tissue that should not respond to FHS stimulation) collected for wet weight determination. In each experiment animals treated with vehicle alone or FSH alone are used as negative and positive controls, respectively.

FSH receptor [2] = biological target: T1, FSH receptor (Homo sapiens, UniProt P23945); assay: In Vitro Bio-test Procedure of Agonists and Antagonists to the FSH Receptor (cAMP accumulation in CHO-3D2 cells); type: cell-based; parameters: expressed in transfected cells; host or cells: CHO-3D2 cells
T1 sequence (P23945 18-695): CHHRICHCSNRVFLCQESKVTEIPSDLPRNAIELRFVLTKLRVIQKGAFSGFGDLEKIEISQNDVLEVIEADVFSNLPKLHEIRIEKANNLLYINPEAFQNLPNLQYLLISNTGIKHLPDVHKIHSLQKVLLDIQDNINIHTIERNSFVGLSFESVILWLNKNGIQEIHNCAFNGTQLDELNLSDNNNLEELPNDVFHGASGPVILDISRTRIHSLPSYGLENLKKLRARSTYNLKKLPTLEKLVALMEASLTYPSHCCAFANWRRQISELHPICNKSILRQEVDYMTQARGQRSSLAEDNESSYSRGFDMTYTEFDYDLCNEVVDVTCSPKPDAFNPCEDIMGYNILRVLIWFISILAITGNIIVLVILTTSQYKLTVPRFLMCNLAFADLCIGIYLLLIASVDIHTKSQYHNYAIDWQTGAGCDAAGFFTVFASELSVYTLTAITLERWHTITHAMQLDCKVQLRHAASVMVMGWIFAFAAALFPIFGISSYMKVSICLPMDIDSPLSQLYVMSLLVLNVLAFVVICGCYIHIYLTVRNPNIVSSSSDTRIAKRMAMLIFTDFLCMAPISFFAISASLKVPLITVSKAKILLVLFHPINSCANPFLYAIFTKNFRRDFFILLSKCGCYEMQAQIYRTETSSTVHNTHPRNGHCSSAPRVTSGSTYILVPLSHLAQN
Method: In Vitro Bio-test Procedure of Agonists and Antagonists to the FSH Receptor
The compounds were subsequently diluted in sterile procedure medium (Optimem (Gibco/BRL, Grand Island, N.Y.)/0.1% BSA) prior to use in the bio-procedure.
Preparation of CHO-3D2 Cells; CHO-3D2 cells were plated into 96-well Nunc tissue culture plates at a density of 30,000 cells/well in DMEM/F12 medium (Gibco/BRL, Grand Island, N.Y.) supplemented with 5% Fetal Bovine Serum (Hyclone, Fetal Clone II), 2 mM L-glutamine and penicillin/streptomycin (100 U/mL). Cells were plated one day prior to performing the bio-procedure.
Procedure: On the day of procedure, the wells were washed two times with 100 ul/well of pre-warmed (37 deg C.) procedure medium. After aspirating the second wash, an additional 100 ul of procedure medium was added to each well and the cells pre-incubated for 30-45 minutes at 37 deg C. In a humidified incubator with 5%CO2/95% air. The cells were then challenged with varying dilutions of the test substance(s) in a 50 ul total incubation volume in procedure medium for 30 minutes at 37 deg C. in the humidified incubator. The challenge was terminated by the addition of 50 ul of 0.2 N HCl to each well. CAMP accumulation in the medium was measured by radioimmunoassay.
Test Groups: In the 96-well format, the plate is organized into 12 columns each containing 8 rows of wells. The plate was split in half to test a single compound in both agonist and antagonist mode on the same plate.
For agonist mode, compounds were tested using 5 different concentrations in a dose-response paradigm using one column as a control (challenge medium alone) in agonist mode.
The 96-well format allowed for the capability to test 4 columns of compound, using one of the remaining columns for negative control (challenge medium alone) and the other remaining column for ampositive control (ED20 of FSH alone).
The doses chosen to test each compound were extrapolated from the initial screening process (receptor binding data). Along with the test compounds, FSH was run in agonist mode using doses ranging from 0.1 ng/mL-1000 ng/mL as a postive control. Cytotoxicity of the compounds were screened by treating cells with the highest concentration of each compound used in the cAMP procedure for 30 minutes followed by washing of the cells 2 times with 100 ul PBS. The cells were then incubated for 5 min at 37 deg C. in the presence of 50 ug/mL Fluorescein diacetate and 20 ug/mL Propidium iodide in 100 ul PBS. The cells were washed two times with 100 ul PBS followed by examination of the cells under a fluorescence microscope using a 490 nm filter. Viable cells stained green throughout, while dead cells had red fluorescent nuclei.
Analysis of Results: cAMP accumulation was expressed as fmol/mL. […] Data were analyzed statistically by analysis of variance and significant differences between treatments and control determined by Dunnett's test. In antagonist mode, a Duncan's test was used.
Reference Compounds: Test compounds were compared to the effect of purified or recombinant human FSH.

FSH receptor [3] = biological target: T1, FSH receptor; assay: FSH Receptor Radioligand Membrane Binding Standard Pharmacological Test Procedure; parameters: expressed in transfected cells; details: [125I]FSH binding to membranes of CHO cells stably transfected with the human FSH receptor
Method in brief: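 Membranes from CHO cells stably expressing human FSH receptor; compounds pre-incubated 15 min at room temperature, then [125I]FSH added (diluted to 200 pM before addition) for 2 h at room temperature in pH 7.2 Tris buffer with protease inhibitors and BSA. Bound radioactivity after filtration counted by gamma counter; non-specific binding defined with unlabelled human FSH.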

Row | Compound | IC50 (mg/Kg) ovaries ([1]; po) [mg/kg] | IC50 (mg/Kg) uterus ([1]; po) [mg/kg] | IC50 (mg/Kg) ovaries ([1]; ip) [mg/kg] | IC50 (mg/Kg) uterus ([1]; ip) [mg/kg] | IC50 (FSH receptor [2]) [µM] | IC50 (FSH receptor [3]) [µM]
1 | CC(C)OS(=O)(=O)c1cc(NC(=O)c2ccc(S(C)(=O)=O)c([N+](=O)[O-])c2)ccc1/C=C/c1ccc(NC(=O)c2ccc(S(C)(=O)=O)c([N+](=O)[O-])c2)cc1S(=O)(=O)OC(C)C [Example 27m, 2,2′-[(E)-1,2-Ethenediyl]bis[5-[[(4-methylsulfonyl)-3-(nitro)-benzoyl]amino]benzenesulfonic Acid], Bis(1-methylethyl) Ester] | 8.4 | 7.9 | – | – | – | –
2 | CSc1ccc(C(=O)Nc2ccc(/C=C/c3ccc(NC(=O)c4ccc(SC)c(S(=O)(=O)N5CCOCC5)c4)cc3S(=O)(=O)OC(C)C)c(S(=O)(=O)OC(C)C)c2)cc1S(=O)(=O)N1CCOCC1 [Example 27k, 2,2′-[(E)-1,2-Ethenediyl]bis[5-[[4-(methylthio)-3-(4-morpholinylsulfonyl)benzoyl]amino]benzenesulfonic Acid], Bis(1-methylethyl) Ester] | 4.8 | 1.9 | 1.1 | 0.5 | – | –
3 | CCS(=O)(=O)c1ccc(C(=O)Nc2ccc(/C=C/c3ccc(NC(=O)c4ccc(S(=O)(=O)CC)cc4)cc3S(=O)(=O)OC(C)C)c(S(=O)(=O)OC(C)C)c2)cc1 [Example 27z, 2,2′-[(E)-1,2-Ethenediyl]bis[5-[[4-(ethylsulfonyl)benzoyl]amino]benzenesulfonic acid], Bis(1-methylethyl) Ester] | >10 | 10 | – | – | – | –
4 | COc1ccc(C(=O)Nc2ccc(/C=C/c3ccc(NC(=O)c4ccc(OC)c(S(=O)(=O)N5CCCCC5)c4)cc3S(=O)(=O)O)c(S(=O)(=O)O)c2)cc1S(=O)(=O)N1CCCCC1 [Example 30h, 2,2′-[(E)-1,2-Ethenediyl]bis[5-[[4-methoxy-3-(1-piperidinylsulfonyl)benzoyl]amino]benzenesulfonic Acid]] | – | – | – | – | 8.1 | 7.3
5 | CS(=O)(=O)c1ccc(C(=O)Nc2ccc(/C=C/c3ccc(NC(=O)c4ccc(S(C)(=O)=O)s4)cc3S(=O)(=O)O)c(S(=O)(=O)O)c2)s1 [Example 32b, 2,2′-[(E)-1,2-Ethenediyl]bis[5-[[[5-(methylsulfonyl)-2-thienyl]carbonyl]amino]benzenesulfonic Acid]] | – | – | – | – | 2.6 | 3.2
6 | COCCOCCSc1ccc(C(=O)Nc2ccc(/C=C/c3ccc(NC(=O)c4ccc(SCCOCCOC)c(S(=O)(=O)N5CCOCC5)c4)cc3S(=O)(=O)O)c(S(=O)(=O)O)c2)cc1S(=O)(=O)N1CCOCC1 [Example 32o] | – | – | – | – | 1 | 1.5

The remaining lines, values ahead:

Row | IC50 (mg/Kg) ovaries ([1]; po) [mg/kg] | IC50 (mg/Kg) uterus ([1]; po) [mg/kg] | IC50 (mg/Kg) ovaries ([1]; ip) [mg/kg] | IC50 (mg/Kg) uterus ([1]; ip) [mg/kg] | IC50 (FSH receptor [2]) [µM] | IC50 (FSH receptor [3]) [µM] | Compound
7 | – | – | – | – | 2.1 | 2 | O=C(CS(=O)(=O)c1ccc(C(=O)Nc2ccc(/C=C/c3ccc(NC(=O)c4ccc(S(=O)(=O)CC(=O)NCCO)cc4)cc3S(=O)(=O)O)c(S(=O)(=O)O)c2)cc1)NCCO [Example 37a, 5-[[4-[[2-[(2-Hydroxyethyl)amino]-2-oxoethyl]sulfonyl]benzoyl]amino]-2-[(E)-2-[4-[[4-[[2-[(2-hydroxyethyl)amino]-2-oxoethyl]sulfonyl]benzoyl]amino]-2-sulfo-phenyl]ethenyl]benzenesulfonic Acid]
8 | – | – | – | – | 6.4 | 5 | COCCOc1ccc(C(=O)Nc2ccc(CCc3ccc(NC(=O)c4ccc(OCCOC)c(S(=O)(=O)N5CCOCC5)c4)cc3S(=O)(=O)O)c(S(=O)(=O)O)c2)cc1S(=O)(=O)N1CCOCC1 [Example 43f, 2,2′-(1,2-Ethanediyl)bis[5-[[4-(2-methoxyethoxy)-3-(4-morpholinylsulfony)benzoyl]amino]benzenesulfonc Acid]]
9 | – | – | – | – | 13 | 12 | O=C(Nc1ccc(CCc2ccc(NC(=O)c3cccc(S(=O)(=O)N4CCOCC4)c3)cc2S(=O)(=O)O)c(S(=O)(=O)O)c1)c1cccc(S(=O)(=O)N2CCOCC2)c1 [Example 43d]
10 | – | – | – | – | 9.5 | 5.4 | O=C(O)C=CCS(=O)(=O)c1cccc(C(=O)Nc2ccc(C=Cc3ccc(NC(=O)c4cccc(S(=O)(=O)CC=CC(=O)O)c4)cc3S(=O)(=O)O)c(S(=O)(=O)O)c2)c1 [Example 36c, 4-{3-[4-(2-{4-[3-(3-Carboxy-prop-2-ene-1-sulfonyl)-benzoylamino]-2-sulfo-phenyl}-vinyl)-3-sulfo-phenylcarbomoyl]-benzenesulfonyl}-but-2-enoic Acid]
11 | – | – | – | – | 2.7 | 6.9 | COCCOc1ccc(C(=O)Nc2ccc(/C=C/c3ccc(NC(=O)c4ccc(OC)c(S(=O)(=O)N5CCOCC5)c4)cc3S(=O)(=O)O)c(S(=O)(=O)O)c2)cc1 [Example 42, 5-[[4-(2-Methoxyethoxy)benzoyl]amino]-2-[(E)-2-[4-[[4-methoxy-3-(4-morpholinylsulfonyl)benzoyl]amino]-2-sulfo-phenyl]ethenyl]benzenesulfonic Acid]
12 | – | – | – | – | 4.5 | 6.2 | CCN(CC)S(=O)(=O)c1cc(C(=O)Nc2ccc(/C=C/c3ccc(NC(=O)c4ccc(OC)c(S(=O)(=O)N(CC)CC)c4)cc3S(=O)(=O)O)c(S(=O)(=O)O)c2)ccc1OC [Example 33c, 2,2′-[(E)-1,2-Ethenediyl]bis[5-[[3-[(diethylamino)sulfonyl]-4-methoxybenzoyl]amino]benzenesulfonic Acid]]

Reference: patent publication US6355633B1, “Aryl sulfonic acids and derivatives as FSH antagonists” (American Home Products Corporation, priority 1999, dated 2002)
